Assay results as given in the supplement of paper PMC10307832.

Tests used:
Experiment in all cases: relative viability (nuclei count vs DMSO), 5 days (fraction); higher = more cells survive
Vemurafenib + Crizotinib = compound: CCCS(=O)(=O)Nc1ccc(F)c(C(=O)c2c[nH]c3ncc(-c4ccc(Cl)cc4)cc23)c1F [Vemurafenib] + C[C@@H](Oc1cc(-c2cnn(C3CCNCC3)c2)cnc1N)c1c(Cl)ccc(F)c1Cl [Crizotinib] (partner 1 µM)
Procedure, shortened: (§1)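 Lung cancer cell lines were pin-tool dosed in 1536-well plates on the day after seeding, with either a lone drug or a fixed anchor-drug dose plus five library-drug doses (not always all listed) in √10 steps. Nuclei were counted on 4× images after 5 days. Relative viability is the ratio of treated-well to vehicle-well nuclei counts, with each value a median of duplicate plates.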

OSI-027 + Phenformin = compound: COc1cccc2cc(-c3nc([C@H]4CC[C@H](C(=O)O)CC4)n4ncnc(N)c34)[nH]c12 [OSI-027] + N=C(N)NC(=N)NCCc1ccccc1 [Phenformin] (partner 250 µM)
Procedure, shortened: as §1

OSI-027 + Vorinostat = compound: COc1cccc2cc(-c3nc([C@H]4CC[C@H](C(=O)O)CC4)n4ncnc(N)c34)[nH]c12 [OSI-027] + O=C(CCCCCCC(=O)Nc1ccccc1)NO [Vorinostat] (partner 1 µM)
Procedure, shortened: as §1

Alpelisib + Luminespib = compound: Cc1nc(NC(=O)N2CCC[C@H]2C(N)=O)sc1-c1ccnc(C(C)(C)C(F)(F)F)c1 [Alpelisib] + CCNC(=O)c1noc(-c2cc(C(C)C)c(O)cc2O)c1-c1ccc(CN2CCOCC2)cc1 [Luminespib] (partner 0.01 µM)
Procedure, shortened: as §1

UMC-11
relative viability (Vemurafenib + Crizotinib; first compound 0.03162 µM): 0.638 | relative viability (Vemurafenib + Crizotinib; first compound 0.1 µM): 0.616 | relative viability (Vemurafenib + Crizotinib; first compound 0.3162 µM): 0.629 | relative viability (Vemurafenib + Crizotinib; first compound 1 µM): 0.633 | relative viability (OSI-027 + Phenformin; first compound 0.01 µM): 0.337 | relative viability (OSI-027 + Phenformin; first compound 0.03162 µM): 0.366 | relative viability (OSI-027 + Phenformin; first compound 0.1 µM): 0.311 | relative viability (OSI-027 + Phenformin; first compound 0.3162 µM): 0.311 | relative viability (OSI-027 + Phenformin; first compound 1 µM): 0.274 | relative viability (OSI-027 + Vorinostat; first compound 0.01 µM): 0.379 | relative viability (OSI-027 + Vorinostat; first compound 0.03162 µM): 0.371 | relative viability (OSI-027 + Vorinostat; first compound 0.1 µM): 0.376 | relative viability (OSI-027 + Vorinostat; first compound 0.3162 µM): 0.348 | relative viability (OSI-027 + Vorinostat; first compound 1 µM): 0.275 | relative viability (Alpelisib + Luminespib; first compound 0.04 µM): 1.04 | relative viability (Alpelisib + Luminespib; first compound 0.1265 µM): 1.05 | relative viability (Alpelisib + Luminespib; first compound 0.4 µM): 1.06 | relative viability (Alpelisib + Luminespib; first compound 1.265 µM): 0.766 | relative viability (Alpelisib + Luminespib; first compound 4 µM): 0.729
